Tested on: NO production in LPS-stimulated RAW 264.7 macrophage cells
Test: Inhibition of nitric oxide (NO) production in LPS-stimulated murine macrophages (RAW 264.7), Griess reagent
Type: cell-based
Conditions: 3 h pre-treatment, then 5 ng/ml LPS overnight; FO 15 μM, DIM 15 μM, BC-concentrated TQ 10 μM; FIG. 3
Experimental: These two different BC preparations were then tested for their ability to inhibit NO production, in accordance with the method described hereinbelow in Example 4.
BC-concentrated TQ (obtained from TriNutra. Ness Ziona, Israel), Omega-3 oil (fish oil—FO) and Diindolylmethane (DIM) were tested on a macrophage murine cellular system (RAW 264.7) before stimulation with Lipopolysaccharide (LPS), an endotoxin which induces a strong response from normal animal immune systems.
Cells were thawed, grown and managed according to standard protocols.
On Day 0, cells were seeded in 6-well plates at concentrations of 6×10^5. Volume of medium per well was 2 ml. Cells were seeded in triplicates for each treatment and for each control.
Culture Medium • 10% FCS, 1% Penicillin-Streptomycin Solution, 2% Glutamine 2% were added to DMEM (final volume −500 ml) and filtered. Medium was kept at 2-8° C. until use.
10 mg LPS was dissolved in 10 ml sterile water aliquoted and kept at −20° C.
Before use 1 aliquot was defrosted and diluted in culture media to final concentration of 5 ng/ml.
MW of Fish oil 300 g/mol.
Test items were dissolved in 100% ethanol to form 100 mM concentration.
Further dilutions were made in culture medium. 10% of test item in concentration×10 was added to each well according to study plan.
Stock solution (100 mM) was prepared in 100% DMSO. […]

c1ccc2c(Cc3c[nH]c4ccccc34)c[nH]c2c1 [DIM, 3,3′-Diindolylmethane]
inhibition of NO production when tested separately: caused inhibition of NO production

Reference: patent US11426365B2, “Compositions comprising thymoquinone and omega-3 fatty acids” (TRINUTRA LTD., priority 2017, dated 2022)
